In patent US20110212890A1, “METASTIN DERIVATIVE AND USE THEREOF” (Takeda Pharmaceutical Company Limited, priority 2008, published 2011):
Ahx = NCCCCCC(=O)O

Key:
male Crl: CD (SD) rats [1] = assay: Testosterone release action in male rat (plasma total testosterone by radioimmunoassay); assay type: in vivo
Procedure: (§1) For male Crl: CD (SD) rats (8 or 10 weeks old), compounds 1 (10 weeks old), 3, 8, 9, 10 and 11 (8 weeks old) (1, 10 or 100 nmol/kg), and metastin (45-54) (PEPTIDE INSTITUTE, INC., 10 or 100 nmol/kg), which were dissolved in physiological saline, were administered subcutaneously to the dorsum. For the control group, a physiological saline was administered subcutaneously to the dorsum. About 0.4 mL of the blood was collected from the tail vein before the administration (0 hour) and after 0.5, 1, 2, 4 hours of the administration of compounds 1, 3, 8, 9, 10 and 11, and metastin (45-54), or physiological saline. The collected blood was well mixed with 12 μL of 10 w/v % EDTA.2Na-containing trasylol solution (Bayer AG), and then separated by centrifugation at 12,000 rpm for 10 minutes, and the supernatant was recovered as the plasma sample. The concentrations of luteinizing hormone (LH) and total testosterone in the plasma were measured with radioimmunoassay (rat LH RIA Immuno-reagent set, National Hormone and Peptide Program, available from Dr. A. F. Parlow, The National Institute of Diabetes and Digestive and Kidney Diseases, and DPC Total Testosterone Kit, Mitsubishi Chemical Formula Iatron, Inc.).

male Crl: CD (SD) rats [2] = assay: LH release action in male rat (plasma LH by radioimmunoassay); assay type: in vivo
Procedure: as §1

[3] = subcutaneous to the dorsum, 1, 10 or 100 nmol/kg, AUC from 0 hour to 4 hours after the administration, vs control group

With “PEG5K(CS)-CO-Acp-Tyr-Asn-Trp-Asn-Ser-Phe-Gly-Leu-Arg-Phe-NH2 ({PEG5K(CS)‑CO-Ahx}-YNWNSFGLRF-NH2) [compound 1]” the “degree of increase in total testosterone concentration in the plasma in comparison to metastin (45-54)” value (male Crl: CD (SD) rats [1]; subcutaneous) was “greater degree of increase” and the “degree of increase in LH concentration in the plasma in comparison to metastin (45-54)” value (male Crl: CD (SD) rats [2]; subcutaneous) was “greater degree of increase”.
With “metastin (45-54): peptide consisting of the N-terminal 45th-54th amino acid sequence of human metastin (SEQ ID NO: 16); PEPTIDE INSTITUTE, INC. (YNWNSFGLRF)” the “dose showing (significant) increase in the total testosterone concentration in the plasma (AUC)” value (male Crl: CD (SD) rats [1]; [3]) was 100 nmol/kg and the “dose showing (significant) increase in the LH concentration in the plasma (AUC)” value (male Crl: CD (SD) rats [2]; [3]) was 100 nmol/kg.
